Read-outs that look alike come from different tables or passages of the source.
What was measured:
[1] = Pharmacokinetic study in rats; type: in vivo, SD rats
Experimental: The pharmacokinetic properties of LL6 were investigated in SD rats (n = 3). The left femoral artery and vein were catheterized with polyethylene tube (Intramedic^TM PE-50; Becton-Dickinson Diagnostics, MD, USA) under Zoletil (Virbac, Carros, France) anesthesia (50 mg/kg, intramuscular injection). LL6 was dissolved in DMSO/PEG 400/normal saline mixture (35:35:30, v/v/v) and single dose solution (1 mg/kg) was administered to rat intravenously. Approximately 150 µL of blood samples were collected via femoral artery at predetermined time (1, 3, 5, 10, 15, 30, 60, 120 and 180 min) and equivalent volume of normal saline solution with 20 U/mL of heparin was replenished to prevent blood coagulation. After centrifugation of the sample at 16,000 × g for 5 min, 50 µL aliquot of plasma samples were stored at -20 °C until HPLC-MS/MS analysis. The Pharmacokinetic parameters, including terminal half-life (T½), area under the plasma concentration-time curve from time zero to time last (AUClast), area under the plasma concentration-time curve from time zero to time infinity (AUCinf), volume of distribution at steady-state (Vss) and mean residence time (MRT) were calculated using non-compartmental analysis (WinNonlin, version 3.1, NCA 201; Pharsight, Mountain View, CA, USA).

[2] = system: Kras^G12D/+-driven lung tumors; test: Mutant Kras-driven lung tumorigenesis model; type: in vivo, Kras^G12D/+ transgenic mice
Experimental: All animal experiments were performed according to protocols approved by the Seoul National University Institutional Animal Care and Use Committee. Mice were fed standard mouse chow and water ad libitum and housed in temperature- and humidity-controlled facilities with a 12-h light/12-h dark cycle. For xenograft experiments, H1944 and A549 cells (1×10^6 cells/spot, diluted in equal amounts of PBS and Matrigel) were subcutaneously injected into the right flank of 6-week-old non-obese diabetic-severe combined immunodeficiency (NOD/SCID) mice. After the tumor volume reached 50-150 mm^3, the mice were randomly grouped and treated with vehicle [10% DMSO in 60% polyethylene glycol (PEG) 400 solution] or LL6 (80 mg/kg) 6 days per week for 2 weeks. Tumor growth was determined by measuring the short and long diameters of the tumor with a caliper, and body weight was measured once or twice per week to monitor toxicity. Additionally, to evaluate the effect of LL6 on mutant Kras-driven lung tumorigenesis, 2-month-old Kras^G12D/+ transgenic mice were randomized and treated with vehicle or LL6 (80 mg/kg) for 8 weeks. The mice were euthanized, and tumor formation was evaluated and compared with that of the vehicle-treated control group. Microscopic evaluations of the H&E-stained lung tissue were also performed to measure mean tumor number (N) and volume (V) in a blinded fashion. The number and size of tumors were calculated in five sections uniformly distributed throughout each lung. In both animal experiments, the tumor volume and burden of each sample were calculated using the following formulas: Tumor volume (mm^3) = (short diameter)^2 × (long diameter) × 0.5; Tumor burden (mm^3) = number of tumors × the average of tumor volume.
Sections derived from formalin-fixed and paraffin-embedded murine lung tissues were deparaffinized by incubation overnight at 65 °C, followed by rehydration in sequential xylene and ethanol rinses. After incubation with hydrogen peroxide, the slides were washed with PBS and then incubated with 0.3% Triton X-100. The sections were incubated with blocking solution (Dako Protein Block, Dako, Glostrup, Denmark) for 30 min at room temperature after washing with PBS. The sections were further incubated with primary antibodies (pAXL, pIGF-1R, and pSrc, diluted at 1:200) overnight at 4 °C, washed with PBS several times, incubated with the corresponding biotinylated secondary antibodies (diluted at 1:500), and then washed with PBS multiple times. After adding avidin-biotin complexes (Vector Laboratories, Burlingame, CA, USA), the sections were visualized using diaminobenzidine detection reagent (Enzo Life Sciences, Farmingdale, NY, USA) and mounted with a mounting solution (Vector Laboratories).

Src = test: Western blot, phosphorylation of Src in H1944 and A549 cells; type: cell-based, human; details: 2.5 μM
AURKA = target: T1, AURKA (Homo sapiens, UniProt O14965); test: KINOMEscan competition binding assay; details: LL6 at 10 μM; read-out: Percent Control
T1 construct: purchased DiscoverX KINOMEscan
Experimental: […] To briefly summarize, Kd was measured by a competition binding assay that quantitatively measures the ability of a compound to compete with an immobilized ligand. […] […] See more details in the cited references [39]-[42] and see also at www.discoverx.com.

BRAF = target: T2, BRAF (Homo sapiens, UniProt P15056); test: KINOMEscan competition binding assay; details: LL6 at 10 μM; read-out: Percent Control
T2 construct: purchased DiscoverX KINOMEscan
Experimental: (§1) Kd values were obtained by KINOMEscan from DiscoverX (San Diego, CA, USA). To briefly summarize, Kd was measured by a competition binding assay that quantitatively measures the ability of a compound to compete with an immobilized ligand. […] Dose response curves of 11 points are obtained for Kd values, which are measured in duplicate. See more details in the cited references [39]-[42] and see also at www.discoverx.com.

CDK2 = target: T3, CDK2 (Homo sapiens, UniProt P24941); test: KINOMEscan competition binding assay; details: LL6 at 10 μM; read-out: Percent Control
T3 construct: purchased DiscoverX KINOMEscan
Experimental: as §1

CSNK1G2 = target: T4, CSNK1G2 (Homo sapiens, UniProt P78368); test: KINOMEscan competition binding assay; details: LL6 at 10 μM; read-out: Percent Control
T4 construct: purchased DiscoverX KINOMEscan
Experimental: as §1

[3] = target: T5, JAK3(JH1domain-catalytic) (Homo sapiens, UniProt P52333); test: KINOMEscan competition binding assay; details: LL6 at 10 μM; read-out: Percent Control
T5 construct: JAK3(JH1domain-catalytic); purchased DiscoverX KINOMEscan
Experimental: as §1

KIT = target: T6, KIT (Homo sapiens, UniProt P10721); test: KINOMEscan competition binding assay
T6 construct: purchased DiscoverX (KINOMEscan service)
Experimental: as §1

PAK1 = target: T7, PAK1 (Homo sapiens, UniProt Q13153); test: KINOMEscan competition binding assay; details: LL6 at 10 μM; read-out: Percent Control
T7 construct: purchased DiscoverX KINOMEscan
Experimental: as §1

PDGFRA = target: T8, PDGFRA (Homo sapiens, UniProt P16234); test: KINOMEscan competition binding assay; details: LL6 at 10 μM; read-out: Percent Control
T8 construct: purchased DiscoverX KINOMEscan
Experimental: as §1

PDGFRB = target: T9, PDGFRB (Homo sapiens, UniProt P09619); test: KINOMEscan competition binding assay
T9 construct: purchased DiscoverX KINOMEscan
Experimental: as §1

PIM1 = target: T10, PIM1 (Homo sapiens, UniProt P11309); test: KINOMEscan competition binding assay; details: LL6 at 10 μM; read-out: Percent Control
T10 construct: purchased DiscoverX KINOMEscan
Experimental: as §1

PLK4 = target: T11, PLK4 (Homo sapiens, UniProt O00444); test: KINOMEscan competition binding assay; details: LL6 at 10 μM; read-out: Percent Control
T11 construct: purchased DiscoverX KINOMEscan
Experimental: as §1

[4] = SD, rat, plasma, rats, intravenous, 1 mg/kg
[5] = LL6 at 10 μM, read-out: Percent Control

- C0 ([1]; SD, rat, plasma, 1 mg/kg, rats, intravenous, read-out: theoretical initial plasma concentration): 33.3 µM
- AUC(0-inf) [1, 4]: 852 ng·h/mL
- AUC(0-t) [1, 4]: 850 ng·h/mL
- MRT [1, 4]: 20.3 min
- clearance [1, 4]: 19.3 ± 1.2 mL/min/kg
- half-life [1, 4]: 29.1 ± 10 min
- C0 ([1]; SD, rat, plasma, rats, intravenous, 1 mg/kg, read-out: C0 (theoretical initial plasma concentration)): 22700 ng/mL
- Vd ([1]; SD, rat, plasma, rats, intravenous, 1 mg/kg, read-out: Vss): 0.392 ± 0.186 L/kg
- elimination in plasma ([1]; rats, intravenous): rapid
- oral bioavailability ([1]; suggested by the pharmacokinetic study): poor
- remaining binding at 10 µM (AURKA): 48%
- remaining binding at 10 µM (BRAF): 45%
- remaining binding at 10 µM (CDK2): 99%
- remaining binding at 10 µM (CSNK1G2): 63%
- remaining binding at 10 µM [3]: 100%
- inhibition at 10 µM (KIT; KIT, LL6 at 10 µM): > 65%
- remaining binding at 10 µM (KIT; [5]): 1.8%
- remaining binding at 10 µM (PAK1): 100%
- remaining binding at 10 µM (PDGFRA): 64%
- remaining binding at 10 µM (PDGFRB; [5]): 5%
- inhibition at 10 µM (PDGFRB; PDGFRB, LL6 at 10 µM): > 65%
- remaining binding at 10 µM (PIM1): 98%
- remaining binding at 10 µM (PLK4): 66%
SMILES: Nc1ncnc2c1c(-c1ccc(Cl)cc1)nn2CCn1cc(COc2ccc(Nc3nccc(Nc4cnc5ccccc5c4)n3)cc2)nn1 [LL6]
- tumor volume and burden ([2]; 80 mg/kg for 8 weeks): Substantial decreases
- lung tumor nodules (multiplicity) ([2]; 80 mg/kg for 8 weeks, especially nodules > 1 mm^3): significantly decreased
- body weight ([2]; 80 mg/kg for 8 weeks, vs vehicle): no detectable difference
- levels of pIGF-1R, pSrc, and pAXL in lung tumors ([2]; immunohistochemistry, 80 mg/kg, vs vehicle): significantly decreased levels
- activation (phosphorylation) of Src (Src): efficiently suppressed
- Kd (KIT; KIT, 11-point dose response, duplicate): did not show dose-dependent inhibition curves
